Reference: patent US8003105B2, “Method of treating cancer by co-administration of anticancer agents” (Astellas Pharma Inc., priority 2006, dated 2011)

How the values were obtained:
[1] = system: human lung carcinoma cell line Calu 6; experiment: Test Example 1: YM155 concomitant with docetaxel, Calu 6 xenograft in nude mice; type: in vivo; conditions: for Number of Complete Regressions: animals with CR / animals in group, during the experimental period to day 35; for Tumor Volume day 0: day 0 (first day of administration); for Tumor Volume day 0 / Body Weight day 35 / Tumor Volume day 35: mean ± SEM, n=8
Procedure: The dose levels are expressed in terms of YM155, the cationic moiety of the drug substance. Docetaxel hydrate (Taxotere® INJECTION) was purchased from Sanofi-Aventis Pharma Ltd. (West Lavel, FRA) and used as docetaxel.
YM155 was dissolved in and diluted with physiological saline in order to prepare dosing solutions (concentrations calculated using the following formulation: dose×mean body weight for each group/daily release volume). These solutions were prepared immediately before the implantation of an osmotic pump (Alzet® model 1007D Micro-Osmotic Pump, DURECT Co., CA, USA) into the test subjects. The solutions were then loaded into the pump. Docetaxel was diluted with physiological saline to prepare 2 mg/mL solutions immediately before administration.
The human lung carcinoma cell line Calu 6 (HTB-56, Lot No. 208280) was obtained from American Type Culture Collection (VA, USA). The cells were cultured at 37° C. in a 5% CO2 atmosphere in RPMI1640 medium supplemented with 10% heat-inactivated fetal bovine serum. The cells were collected with trypsin, suspended in PBS at 6×10^7 cells/mL, and then mixed with an equivalent volume of Matrigel® Basement Membrane Matrix (Becton Dickinson Co., Bedford, Mass., USA).
Five-week-old male nude mice (CAnN.Cg-Foxn1nu/CrlCrlj(nu/nu)) were purchased from Charles River Laboratories Japan, Inc (Kanagawa, Japan). They were maintained on a standard diet and water throughout the experiments under specific pathogen-free conditions. The cells were cultured in vitro and 3×10^6 cells/0.1 mL/mouse were grafted subcutaneously into the flank of 6-week-old nude mice. The mice with tumor volumes (length×width^2×0.5) of 97.3 to 182.7 mm^3 were divided into groups. This was done using SAS software in order to minimize intragroup and intergroup tumor volume variation.
The first day of administration was designated day 0, and observation continued until day 35. Each group (n=8) was treated as follows.
(§1) For 7-day sc continuous infusion, an osmotic pump containing either YM155 or physiological saline, was implanted in the dorsum of each animal while under anesthesia. The vehicle control group received a 7-day sc continuous infusion of physiological saline starting on day 0, and iv bolus injection of physiological saline on days 0, 4 and 8. The YM155 group received a 7-day sc continuous infusion of YM155 at 2 mg/kg/day starting on day 0, and iv bolus injection of physiological saline on days 0, 4 and 8. The docetaxel group received iv bolus injection of docetaxel at 20 mg/10 mL/kg on days 0, 4 and 8, as well as a 7-day sc continuous infusion of physiological saline starting on day 0. The combination group received both compounds instead of the vehicle, similarly to the YM155 and docetaxel groups.
Body weight and tumor diameter were measured every 3-4 days using calipers, and tumor volume was determined by calculating the volume of an ellipsoid using the formula: length×width^2×0.5. Antitumor activities are expressed as percent inhibition of tumor growth (% inh) and percent regression of the tumor (% reg). […] The percent regression of the tumor was calculated for all groups with observed tumor regression, using the following formula: 100×{1−(mean tumor volume of each group on day 35)/(mean tumor volume of each group on day 0)}. The number of Complete Regressions (CRs) in all groups were checked during the experimental period. The CR is defined by instances in which the tumor burden falls bellow the limit of palpation.
Values are expressed as the mean± the standard error of the mean (SEM). Tumor volume and body weight on day 35 were compared between each single compound group and combination group using the Student's t-test. P values of less than 5% are considered significant. SAS software was used for data processing.

[2] = system: human lung carcinoma cell line Calu 6; experiment: Test Example 2A: YM155 followed by docetaxel (sequential), Calu 6 xenograft in nude mice; type: in vivo; conditions: for Number of CRs: animals with complete regression / animals in group; for Tumor Volume day 0 / Body Weight day 35 / Tumor Volume day 35: mean ± SEM, n=8
Procedure: (§2) The following study was conducted in the same way as Test Example 1 except for the administration timing.
A) The first day of administration was designated day 0, and observation continued until day 35. Each group (n=8) was treated as follows.
For 7-day sc continuous infusion, an osmotic pump containing either YM155 or physiological saline, was implanted in the dorsum of each animal while under anesthesia. The vehicle control group received a 7-day sc continuous infusion of physiological saline starting on day 0, and iv bolus injection of physiological saline on days 7, 11 and 15. The YM155 group received a 7-day sc continuous infusion of YM155 at 2 mg/kg/day starting on day 0 and iv bolus injection of physiological saline on days 7, 11 and 15. The docetaxel group received iv bolus injection of docetaxel at 20 mg/10 mL/kg on days 7, 11 and 15, as well as a 7-day sc continuous infusion of physiological saline starting on day 0. The combination group received both compounds instead of the vehicle, similarly to the YM155 and docetaxel groups. Results

[3] = system: human lung carcinoma cell line Calu 6; experiment: Test Example 2B: docetaxel followed by YM155 (sequential), Calu 6 xenograft in nude mice; type: in vivo; conditions: for Number of CRs: animals with complete regression / animals in group; for Tumor Volume day 0 / Body Weight day 35 / Tumor Volume day 35: mean ± SEM, n=8
Procedure: as §2
B) The first day of administration was designated day 0, and observation continued until day 35. Each group (n=8) was treated as follows.
as §1, with “day 8,” for “day 0,”, “day 8.” for “day 0.”, “groups. Results” for “groups.”

[4] = system: lymphoma WSU-DLCL-2 cells; experiment: Test Example 6: YM155 followed by R-ICE, WSU-DLCL-2 xenograft; type: in vivo, nude mice
Procedure: The study was conducted in the same way as Test Example 5 according to the following dosage regimen.
YM155 group YM155 2 mg/kg/day (7-day sc continuous infusion)
RICE group RTX 50 mg/kg, i.v. (day 6 and 8)+(IFM 400 mg/kg+CBDCA 30 mg/kg), i.v (day 9)+ETP 10 mg/kg, i.v (day 8, 9 and 10)
YM155→RICE group YM155 2 mg/kg/day (7-day sc continuous infusion)+RTX 50 mg/kg, i.v. (day 6 and 8)+(IFM 400 mg/kg+CBDCA 30 mg/kg), i.v. (day 9)+ETP 10 mg/kg, i.v. (day 8, 9 and 10)
In the table, values are expressed as the mean±SEM (n=8, RICE group: n=6). ¶¶: P<0.01 versus an RICE group, ##: P<0.01 versus YM155 group, N.S.: no significance from RICE group (Student's t-test).

[5] = system: human NSCLC xenograft models; conditions: NSCLC xenograft model; Ref. 15; cited from earlier work
[6] = day 35, YM155 2 mg/kg/day 7-day sc infusion from day 0, docetaxel 20 mg/kg/day iv day 0, 4, 8
[7] = day 35, YM155 2 mg/kg/day 7-day sc infusion from day 0, docetaxel 20 mg/kg/day iv day 7, 11, 15
[8] = day 35, docetaxel 20 mg/kg/day iv day 0, 4, 8, YM155 2 mg/kg/day 7-day sc infusion from day 8

Compound	Number of Complete Regressions [1]	Tumor Volume day 0 [1] [mm^3]	Antitumor Activity, percent inhibition of tumor growth (% inh) [1, 6] [%]	Body Weight day 35 [1, 6]	Tumor Volume day 35 [1, 6] [mm^3]	Number of CRs [2]	Tumor Volume day 0 [2] [mm^3]	Body Weight day 35 [2, 7] [g]	Tumor Volume day 35 [2, 7] [mm^3]	Number of CRs [3]	Tumor Volume day 0 [3] [mm^3]	Body Weight day 35 [3, 8]	Tumor Volume day 35 [3, 8] [mm^3]	also measured
CC(=O)O[C@@]12CO[C@@H]1C[C@H](O)[C@@]1(C)C(=O)[C@H](O)C3=C(C)[C@@H](OC(=O)[C@H](O)[C@@H](NC(=O)OC(C)(C)C)c4ccccc4)C[C@@](O)([C@@H](OC(=O)c4ccccc4)[C@H]21)C3(C)C [Docetaxel, Docetaxel hydrate]	0/8	121.4 ± 7.0	> 100	24.95 ± 0.54 ^ g	58.0 ± 20.4	0/8	209.1 ± 18.3	21.03 ± 0.94	188.8 ± 29.1	0/8	210.0 ± 22.6	23.84 ± 1.01 ^ g	67.2 ± 15.1	Antitumor Activity, percent regression of the tumor (% reg) [1, 6]: 52%; Antitumor Activity, percent inhibition of tumor growth (% inh) [2, 7]: > 100%; Antitumor Activity, percent regression of the tumor (% reg) [2, 7]: 10%; Antitumor Activity, percent inhibition of tumor growth (% inh) [3, 8]: > 100%; Antitumor Activity, percent regression of the tumor (% reg) [3, 8]: 68%
COCCn1c2c([n+](Cc3cnccn3)c1C)C(=O)c1ccccc1C2=O.[Br-] [YM155, 1-(2-methoxyethyl)-2-methyl-4,9-dioxo-3-(pyrazin-2-ylmethyl)-4,9-dihydro-1H-naphtho[2,3-d]imidazol-3-ium bromide]	0/8	121.4 ± 6.9	99	26.13 ± 0.56 ^ g	142.3 ± 16.9	0/8	208.5 ± 18.6	26.25 ± 0.25	251.8 ± 50.7	0/8	206.9 ± 21.8	24.80 ± 1.01 ^ g	1437.5 ± 225.5	Number of CRs ([4]; animals with complete regression / animals in group): 0/8; Tumor Volume day 0 ([4]; day 0, mean ± SEM, n=8, RICE group n=6): 405.1 ± 13.8 mm^3; Antitumor Activity, percent inhibition of tumor growth (% inh) ([4]; day 28, YM155 2 mg/kg/day 7-day sc infusion, RICE given day 6-10): 45%; Body Weight day 28 ([4]; day 28, YM155 2 mg/kg/day 7-day sc infusion, RICE given day 6-10, mean ± SEM): 28.81 ± 0.23 g; Tumor Volume day 28 ([4]; day 28, YM155 2 mg/kg/day 7-day sc infusion, RICE: RTX 50 mg/kg iv day 6, 8 + IFM 400 mg/kg + CBDCA 30 mg/kg iv day 9 + ETP 10 mg/kg iv day 8-10, mean ± SEM): 1181.3 ± 174.7 mm^3; anti-tumor activity of 7-day continuous infusion [5]: induced tumor regression
